Experimental data reported in patent publication US9221808B2, “Pyridylthiazole-based ureas as inhibitors of Rho associated protein kinase (ROCK) and methods of use” (H. Lee Moffitt Cancer Center and Research Institute, Inc., priority 2010, dated 2015).
Where “and” joins values, the source holds several entries; their conditions need not be identical. Identical values can stand only once. Counter-ions that a name gives are not always drawn. Like-named read-outs stand apart in the source and are kept apart here.

Key:
[1] = molecular target: ROCK1 (Homo sapiens (Human), UniProt Q13464); test: FRET-based Z'-Lyte kinase assay, ROCK1; format: biochemical; conditions: for IC50: read-out: IC50 ± SD (μM) ROCK1;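 as to all read-outs here: kinase phosphorylates a coumarin/fluorescein-labelled FRET peptide, then a protease cleaves unphosphorylated peptide, progress read as donor to acceptor emission ratio after 400 nm excitation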
Text: (§1) A) In the primary reaction, the Rho kinases phosphorylates a single serine or threonine residue in a synthetic FRET-peptide. This FRET-peptide is doubly labeled with a fluorophore at each end—coumarin (the FRET donor) on one end and fluorescein (the FRET acceptor) on the other—and also contains a single phosphorylation site which either overlaps with or lies adjacent to the proteolytic site. B) In the secondary reaction, a site-specific protease recognizes and cleaves the non-phosphorylated FRET-peptide. Cleavage disrupts FRET between the donor and acceptor fluorophores on the FRET-peptide, whereas uncleaved, phosphorylated FRET-peptides maintain FRET. Kinases phosphorylated FRET-peptides cannot be cleaved by the protease. […] Cleavage disrupts FRET and causes a decrease in the fluorescein fluorescence signal and a strong increase in the coumarin fluorescence signal. Therefore the extension of the phosphprylation can be measured by FRET-signal remaining the protease reaction. The assay uses a ratiometric method, which calculates the ratio of donor emission to acceptor emission (the emission ratio) after excitation of the donor fluorophore at 400 nm, to quantitate reaction progress.
(§2) All compounds were systematically screened against ROCK1 and ROCK2.

[2] = molecular target: ROCK2 (Homo sapiens (Human), UniProt O75116); test: FRET-based Z'-Lyte kinase assay, ROCK2; format: biochemical; conditions: read-out: IC50 ± SD (μM) ROCK2;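 also: kinase phosphorylates a coumarin/fluorescein FRET peptide, then a protease cleaves unphosphorylated peptide, read as donor/acceptor emission ratio after 400 nm excitation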
Sequence of ROCK2 (O75116 whole entry, species assumed): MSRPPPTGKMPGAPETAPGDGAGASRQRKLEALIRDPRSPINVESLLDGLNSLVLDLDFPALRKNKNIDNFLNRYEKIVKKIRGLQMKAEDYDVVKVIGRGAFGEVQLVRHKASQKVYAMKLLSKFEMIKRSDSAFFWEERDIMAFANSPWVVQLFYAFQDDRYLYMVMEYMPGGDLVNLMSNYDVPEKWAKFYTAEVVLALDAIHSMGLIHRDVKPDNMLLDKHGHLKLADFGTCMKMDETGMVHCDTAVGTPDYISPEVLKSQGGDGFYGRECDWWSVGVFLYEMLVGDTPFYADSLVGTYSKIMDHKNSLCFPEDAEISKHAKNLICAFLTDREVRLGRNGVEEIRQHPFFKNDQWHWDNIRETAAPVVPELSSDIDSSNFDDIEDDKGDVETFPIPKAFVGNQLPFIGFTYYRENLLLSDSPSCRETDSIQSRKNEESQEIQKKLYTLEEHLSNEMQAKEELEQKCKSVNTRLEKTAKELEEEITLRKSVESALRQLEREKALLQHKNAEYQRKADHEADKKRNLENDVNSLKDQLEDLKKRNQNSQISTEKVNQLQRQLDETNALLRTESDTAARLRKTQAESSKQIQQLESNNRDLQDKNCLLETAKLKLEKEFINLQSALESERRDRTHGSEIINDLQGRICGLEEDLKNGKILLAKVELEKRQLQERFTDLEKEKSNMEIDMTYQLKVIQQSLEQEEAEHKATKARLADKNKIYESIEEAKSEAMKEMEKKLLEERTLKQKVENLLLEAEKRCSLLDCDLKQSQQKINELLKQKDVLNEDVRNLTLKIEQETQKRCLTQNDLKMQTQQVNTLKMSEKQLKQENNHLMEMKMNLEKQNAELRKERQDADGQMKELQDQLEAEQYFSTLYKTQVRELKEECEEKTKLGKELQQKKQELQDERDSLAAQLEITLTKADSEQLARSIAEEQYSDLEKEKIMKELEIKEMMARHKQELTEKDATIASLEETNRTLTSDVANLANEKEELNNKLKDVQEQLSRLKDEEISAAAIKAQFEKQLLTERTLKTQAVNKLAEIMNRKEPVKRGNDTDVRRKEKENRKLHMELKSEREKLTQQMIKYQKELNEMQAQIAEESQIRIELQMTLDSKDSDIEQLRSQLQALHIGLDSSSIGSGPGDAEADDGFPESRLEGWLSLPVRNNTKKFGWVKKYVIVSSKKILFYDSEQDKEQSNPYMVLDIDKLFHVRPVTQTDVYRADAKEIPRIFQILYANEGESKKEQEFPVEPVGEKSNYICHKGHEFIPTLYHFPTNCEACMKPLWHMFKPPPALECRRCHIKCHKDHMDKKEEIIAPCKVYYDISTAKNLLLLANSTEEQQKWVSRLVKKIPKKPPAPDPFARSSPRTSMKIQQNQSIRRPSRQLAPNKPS
Text: as §1, §2

Sequence of ROCK1 (Q13464 whole entry, species assumed): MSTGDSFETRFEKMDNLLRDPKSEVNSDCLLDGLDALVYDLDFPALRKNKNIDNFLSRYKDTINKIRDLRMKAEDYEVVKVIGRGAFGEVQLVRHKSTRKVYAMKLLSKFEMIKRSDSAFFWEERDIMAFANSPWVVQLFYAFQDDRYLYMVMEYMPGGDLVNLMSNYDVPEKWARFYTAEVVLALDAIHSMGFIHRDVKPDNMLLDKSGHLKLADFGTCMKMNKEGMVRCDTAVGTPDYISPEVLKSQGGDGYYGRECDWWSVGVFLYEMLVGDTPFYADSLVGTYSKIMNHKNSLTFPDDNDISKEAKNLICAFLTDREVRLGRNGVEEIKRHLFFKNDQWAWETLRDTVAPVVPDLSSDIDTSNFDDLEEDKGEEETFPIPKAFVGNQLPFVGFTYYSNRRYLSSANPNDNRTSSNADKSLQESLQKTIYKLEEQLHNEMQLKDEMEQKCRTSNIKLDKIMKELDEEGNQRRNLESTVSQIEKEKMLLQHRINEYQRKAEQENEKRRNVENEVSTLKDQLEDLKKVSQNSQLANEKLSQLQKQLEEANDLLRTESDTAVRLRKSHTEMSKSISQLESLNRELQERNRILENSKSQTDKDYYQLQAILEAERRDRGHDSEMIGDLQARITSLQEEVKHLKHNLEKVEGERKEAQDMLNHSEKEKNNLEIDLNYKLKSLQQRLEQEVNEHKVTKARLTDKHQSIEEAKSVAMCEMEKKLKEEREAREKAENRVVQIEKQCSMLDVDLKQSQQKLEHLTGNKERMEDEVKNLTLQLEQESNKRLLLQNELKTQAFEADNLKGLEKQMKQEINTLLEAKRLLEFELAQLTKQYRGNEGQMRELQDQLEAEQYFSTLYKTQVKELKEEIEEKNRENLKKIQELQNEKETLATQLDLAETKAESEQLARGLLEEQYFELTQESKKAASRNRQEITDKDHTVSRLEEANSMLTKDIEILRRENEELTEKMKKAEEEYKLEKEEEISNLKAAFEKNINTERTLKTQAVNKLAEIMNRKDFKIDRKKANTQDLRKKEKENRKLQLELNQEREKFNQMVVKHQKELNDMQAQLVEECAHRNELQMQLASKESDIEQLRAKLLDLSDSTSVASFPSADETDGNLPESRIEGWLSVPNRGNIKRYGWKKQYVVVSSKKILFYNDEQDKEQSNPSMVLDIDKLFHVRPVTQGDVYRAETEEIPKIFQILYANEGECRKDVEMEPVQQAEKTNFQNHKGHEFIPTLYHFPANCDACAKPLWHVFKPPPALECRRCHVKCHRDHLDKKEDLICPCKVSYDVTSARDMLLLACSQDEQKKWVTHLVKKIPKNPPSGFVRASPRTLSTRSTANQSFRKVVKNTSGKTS

Row | IC50 [1] | IC50 [2] | Compound | further results
1 | 45.1 ± 5.57 µM | 25 ± 1.01 µM | COc1ccc(CNC(=O)Nc2nc(-c3ccncc3)cs2)cc1OC [Compound 1ck, 1-(3,4-Dimethoxybenzyl)-3-(4-(pyridin-4-yl)thiazol-2-yl)urea] | –
2 | 0.15 ± 0.03 µM | 0.12 ± 0.02 µM | Cc1ccccc1CNC(=O)Nc1nc(-c2ccncc2)cs1 [Compound 1bt, 1-(2-Methylbenzyl)-3-(4-(pyridin-4-yl)thiazol-2-yl)urea] | –
3 | 37.8 ± 7.81 µM | 31.1 ± 9.14 µM | O=C(NCc1cccc2[nH]ccc12)Nc1nc(-c2ccncc2)cs1 [Compound 1bn, 1-((1H-indol-4-yl)methyl)-3-(4-(pyridin-4-yl)thiazol-2-yl)urea] | fold decrease in activity compared to 1bo ([1]; comparator 1bo (comparator for 1bn not stated)): 470 fold
4 | 0.19 ± 0.04 µM | 0.07 ± 0.02 µM | CC(C)(NC(=O)Nc1nc(-c2ccncc2)cs1)c1ccccc1 [Compound 1cl, 1-(2-Phenylpropan-2-yl)-3-(4-(pyridin-4-yl)thiazol-2-yl)urea] | –
5 | 0.04 ± 0.01 µM | 0.015 ± 0.004 µM | COc1cccc(CN(C)C(=O)Nc2nc(-c3ccncc3)cs2)c1 [Compound 1cm, 1-(3-Methoxybenzyl)-1-methyl-3-(4-(pyridin-4-yl)thiazol-2-yl)urea] | –
6 | 1.25 ± 0.21 µM | 0.13 ± 0.02 µM | CC(=O)Nc1cccc(CNC(=O)Nc2nc(-c3ccncc3)cs2)c1 [Compound 1ci, N-(3-((3-(4-(pyridin-4-yl)thiazol-2yl)ureido)methyl)phenyl)acetamide hydrochloride] | –
7 | 4.07 ± 2.76 µM | 0.96 ± 0.56 µM | O=C(NCc1cc(F)cc(F)c1)Nc1nc(-c2ccncc2)cs1 [Compound 1cd, 1-(3,5-difluorobenzyl)-3-(4-(pyridin-4-yl)thiazol-2-yl)urea] | –
8 | 6.44 ± 1.67 µM | 2.67 ± 0.89 µM | C[C@@H](c1ccccc1)N(C)C(=O)Nc1nc(-c2ccncc2)cs1 [Compound 1co, (S)-1-Methyl-1-(1-phenylethyl)-3-(4-(pyridin-4-yl)thiazol-2-yl)urea] | –
9 | 0.5 ± 0.05 µM | 0.24 ± 0.03 µM | COCCOc1cccc(CNC(=O)Nc2nc(-c3ccncc3)cs2)c1 [Compound 1bm, 1-(3-(2-Methoxyethoxy)benzyl)-3-(4-(pyridin-4-yl)thiazol-2-yl)urea] | –
10 | 0.12 ± 0.04 µM | 0.047 ± 0.018 µM | C[C@H](c1ccccc1)N(C)C(=O)Nc1nc(-c2ccncc2)cs1 [Compound 1cn, (R)-1-Methyl-1-(1-phenylethyl)-3-(4-(pyridin-4-yl)thiazol-2-yl)urea] | –
11 | 0.11 ± 0.01 µM | 0.03 ± 0.01 µM | C[C@@H](NC(=O)Nc1nc(-c2ccncc2)cs1)c1cccc(F)c1 [Compound 1cc, (R)-1-(1-(3-fluorophenyl)ethyl)-3-(4-(pyridin-4-yl)thiazol-2-yl)urea] | fold less potent than 1ah ([1]; comparator 1ah): 3 fold
12 | > 50 µM | 11.9 ± 4.69 µM | COc1ccc([C@@H](C)NC(=O)Nc2nc(-c3ccncc3)cs2)cc1 [Compound 1bz, (R)-1-(1-(4-methoxyphenyl)ethyl)-3-(4-(pyridin-4-yl)thiazol-2-yl)urea] | –
13 | 2.14 ± 0.62 µM | 0.29 ± 0.17 µM | CCOc1cccc(CNC(=O)Nc2nc(-c3ccncc3)cs2)c1 [Compound 1bw, 1-(3-ethoxybenzyl)-3-(4-(pyridin-4-yl)thiazol-2-yl)urea] | –
14 | 0.08 ± 0.01 µM | 0.04 ± 0.016 µM | NC(=O)[C@@H](NC(=O)Nc1nc(-c2ccncc2)cs1)c1ccccc1 [Compound 1cp, (S)-2-Phenyl-2-(3-(4-(pyridin-4-yl)thiazol-2-yl)ureido)acetamide] | fold loss of potency compared to 1at ([1]; comparator 1at): 11 fold
15 | 45.9 ± 5.15 µM | 17.4 ± 3.79 µM | Nc1ccc(CNC(=O)Nc2nc(-c3ccncc3)cs2)cc1 [Compound 1bl, 1-(4-Aminobenzyl)-3-(4-(pyridin-4-yl)thiazol-2-yl)urea] | –
16 | 0.43 ± 0.13 µM | 0.28 ± 0.13 µM | CC(NC(=O)Nc1nc(-c2ccncc2)cs1)c1cccc(F)c1 (stereo not shown) [Compound 1ca, 1-(1-(3-fluorophenyl)ethyl)-3-(4-(pyridin-4-yl)thiazol-2-yl)urea] | –
17 | 0.92 ± 0.1 µM | 0.35 ± 0.08 µM | O=C(NCc1cccc(OC(F)F)c1)Nc1nc(-c2ccncc2)cs1 [Compound 1bs, 1-(3-(Difluoromethoxy)benzyl)-3-(4-(pyridin-4-yl)thiazol-2-yl)urea] | –

Second part, the compound before the results:

Row | Compound | IC50 [1] | IC50 [2] | further results
18 | COc1ccc(CNC(=O)Nc2nc(-c3ccncc3)cs2)cc1 [Compound 1am-Mes, 1-(4-methoxybenzyl)-3-(4-(pyridin-4-yl)thiazol-2-yl)urea methanesulfonate] | 36.2 ± 10 µM | 7.42 ± 2.29 µM | –
19 | C[C@@H](NC(=O)Nc1nc(-c2ccncc2)cs1)c1ccccc1 [Compound 1ah, (R)-1-(1-Phenylethyl)-3-(4-(pyridin-4-yl)thiazol-2-yl)urea] | 0.043 µM and 0.019 µM | 0.012 ± 0.004 µM | fold more potent than parent compound 1aa ([1]; comparator 1aa): 7 fold; fold more potent/active than its enantiomer ([1]; comparator: enantiomer (1ai for 1ah, 1bf for 1be)): 215 fold
20 | O=C(NCc1ccccc1F)Nc1nc(-c2ccncc2)cs1 [Compound 1ac, 1-(2-Fluorobenzyl)-3-(4-(pyridin-4-yl)thiazol-2-yl)urea] | 0.4 ± 0.03 µM | 0.12 ± 0.01 µM | –
21 | Cc1cccc(CNC(=O)Nc2nc(-c3ccncc3)cs2)c1 [Compound 1ba, 1-(3-Methylbenzyl)-3-(4-(pyridin-4-yl)thiazol-2-yl)urea] | 0.46 ± 0.08 µM | 0.12 ± 0.03 µM | fold decrease in ROCK1 activity/potency compared to parent compound 1aa ([1]; comparator 1aa): 3 fold
22 | O=C(NCc1ccccn1)Nc1nc(-c2ccncc2)cs1 [Compound 1ap, 1-(Pyridin-2-ylmethyl)-3-(4-(pyridin-4-yl)thiazol-2-yl)urea] | 1.82 ± 0.18 µM | 1.44 ± 0.22 µM | –
23 | COc1cccc(CNC(=O)N(C)c2nc(-c3ccncc3)cs2)c1 [Compound 1al, 3-(3-Methoxybenzyl)-1-methyl-1-(4-(pyridin-4-yl)thiazol-2-yl)urea] | 0.06 ± 0.04 µM | 0.002 ± 0.0015 µM | –
24 | O=C(NCc1ccccc1)Nc1nc(-c2ccncc2)cs1 [Compound 1aa, 1-Benzyl-3-(4-(pyridin-4-yl)thiazol-2-yl)urea] | 0.15 µM and 0.17 µM | 0.09 µM and 0.05 µM | –
25 | C[C@H](NC(=O)Nc1nc(-c2ccncc2)cs1)c1ccccc1 [Compound 1ai, (S)-1-(1-Phenylethyl)-3-(4-(pyridin-4-yl)thiazol-2-yl)urea] | 3.56 µM and 3.29 µM | 1.6 µM and 1.9 µM | –
26 | O=C(NCc1cccc2ccccc12)Nc1nc(-c2ccncc2)cs1 [Compound 1av, 1-(Naphthalen-1-ylmethyl)-3-(4-(pyridin-4-yl)thiazol-2-yl)urea] | 1.1 ± 0.202 µM | 0.58 ± 0.218 µM | –
27 | COc1cccc(CNC(=O)Nc2nc(-c3ccncc3)cs2)c1OC [Compound 1bc, 1-(2,3-Dimethoxybenzyl)-3-(4-(pyridin-4-yl)thiazol-2-yl)urea] | 35.4 ± 6.78 µM | 19.7 ± 2.94 µM | –
28 | COc1cccc(CNC(=O)Nc2nc(-c3ccncc3)cs2)c1 [Compound 1af-HCl, 1-(3-methoxybenzyl)-3-(4-(pyridin-4-yl)thiazol-2-yl)urea hydrochloride] | – | – | IC50 ([1]; hydrochloride): 0.023 ± 0.01 µM; IC50 ([2]; hydrochloride): 0.014 ± 0.01 µM
29 | COc1cccc([C@H](C)NC(=O)Nc2nc(-c3ccncc3)cs2)c1 [Compound 1bg, (S)-1-(1-(3-Methoxyphenyl)ethyl)-3-(4-(pyridin-4-yl)thiazol-2-yl)urea] | 18.7 ± 2.09 µM | 3.25 ± 0.96 µM | –
30 | O=C(Nc1nc(-c2ccncc2)cs1)NC(c1ccccc1)c1ccccc1 [Compound 1bi, 1-Benzhydryl-3-(4-(pyridin-4-yl)thiazol-2-yl)urea] | 1.87 ± 0.54 µM | 0.53 ± 0.1 µM | fold decrease in ROCK1 activity/potency compared to parent compound 1aa ([1]; comparator 1aa): 12 fold
